Tested on: healthy male alcohol drinkers
Assay: Phase 1 single-ascending-dose study of compound (2) coadministered with ethanol: safety
Assay type: in vivo, human
Protocol: This was a single-center, randomized, double-blind, placebo-controlled, single-ascending-dose cohort study to evaluate the safety and tolerability of the coadministration of up to 6 dose levels of compound (2) (25 mg, 50 mg, 100 mg, 200 mg, 400 mg and 600 mg) and EtOH in healthy male alcohol drinkers.
Within 27 days of the medical screening visit, subjects were enrolled and attended an inpatient Qualification Phase in which they received up to 5 standard drinks (14 grams of EtOH each; oral solution of vodka containing 40% [v/v] EtOH, mixed with a non-carbonated beverage, one drink every 30 minutes) to evaluate their tolerance to repeat administration to ensure they could safely tolerate the planned EtOH treatment. A minimum washout interval of 44 hours was performed between initiation of the last EtOH administration in the Qualification Phase and study drug administration in the Treatment Phase.
Following qualification, eligible subjects were enrolled and randomized to receive compound (2) or placebo in a 3:1 fashion in each of 6 cohorts (8 subjects per cohort). As a safety precaution, no more than 4 subjects were administered study drug on any given day. Planned compound (2) dose levels included doses of 25 mg, 50 mg, 100 mg, 200 mg, 400 mg, and 600 mg. Study drug administration occurred approximately 1 hour following ingestion of a standardized (moderate-fat) meal. Approximately 2 hours after receiving the study drug, subjects began a session of repeat EtOH administration, during which they could receive up to 5 doses of EtOH (14 grams each, approximately 1 standard drink) every 30 minutes, or until a stopping criterion applied. Safety assessments, pharmacodynamic assessments and pharmacokinetic blood sample collections were obtained up to 48 hours post-dose. Subjects were discharged after 48-hour post-dose procedures were completed and the investigator deemed it safe to do so. Subjects returned for the safety follow-up visit approximately 7 (±2) days following discharge from the Treatment Phase or after early discontinuation from the study.
The primary endpoints included frequency and severity of adverse events (AEs), ethanol reaction (ER) scores and flushing, laboratory values, vital signs, and electrocardiograms (ECGs).
Subjects' ER scores and flushing were summarized descriptively by timepoint, category and treatment. In addition, flushing, ER heat sensation and ER palpitation were compared between each of the active doses and placebo using a mixed-effect model for repeated measures (MMRM) analysis with treatment, visit, and treatment by visit as fixed effects and baseline as a covariate. The actual value was used as the dependent variable and visit included pre-EtOH, 30 minutes, 60 minutes, 90 minutes, 120 minutes, 150 minutes and 3 hours relative to the first EtOH administration in Treatment Phase. The variance-covariance matrix was assumed to be unstructured. […] Results were presented as least square means (LSMEANS), treatment differences in LSMEANS, 95% confidence intervals (CI) and p-values.
Vital signs measurements (respiratory rate, systolic and diastolic blood pressure, and heart rate) were summarized by treatment and visit. Heart rate and diastolic blood pressure were also compared between each of the active doses and placebo using an MMRM analysis with treatment, visit, and treatment by visit as fixed effects and baseline as a covariate.
Twelve-lead ECG results were summarized by timepoint and treatment, and frequencies (numbers and percentages) were calculated for the overall evaluation. Concomitant medications, clinical laboratory evaluations (raw data and change from baseline, as applicable) and physical examination findings were listed.

[1] = 25 mg, 105 min after first EtOH
[2] = 25 mg, 135 min after first EtOH
[3] = 50 mg, 105 min after first EtOH
[4] = 50 mg, 135 min after first EtOH
[5] = 100 mg, 15 min after first EtOH
[6] = 100 mg, 45 min after first EtOH
[7] = 100 mg, 75 min after first EtOH
[8] = 100 mg, 105 min after first EtOH
[9] = 100 mg, 135 min after first EtOH
[10] = 200 mg, 15 min after first EtOH
[11] = 200 mg, 45 min after first EtOH
[12] = 200 mg, 75 min after first EtOH
[13] = 200 mg, 105 min after first EtOH

O=C(NCc1ccc(-c2ccn(COP(=O)(O)O)c(=O)c2)cc1)c1c(Cl)cccc1Cl [Compound (2), phosphoric acid mono-(4-{4-[(2,6-dichloro-benzoylamino)-methyl]-phenyl}-2-oxo-2H-pyridin-1-ylmethyl) ester]
flushing (25 mg): not observed
subjects reporting a TEAE (25 mg): 66.7%
Diastolic Blood Pressure, Mean (25 mg, 15 min after first EtOH): 76.0 mmHg
Systolic Blood Pressure, Mean (25 mg, 15 min after first EtOH): 120.3 mmHg
Diastolic Blood Pressure, Mean (25 mg, 45 min after first EtOH): 75.5 mmHg
Heart Rate, Mean (25 mg, 45 min after first EtOH): 65.3 beats/min
Systolic Blood Pressure, Mean (25 mg, 45 min after first EtOH): 120.5 mmHg
QTcF Interval, Aggregate, Mean (25 mg, 1 hour after initiation of repeat EtOH administration session): 406.7 ms
Diastolic Blood Pressure, Mean (25 mg, 75 min after first EtOH): 75.8 mmHg
Heart Rate, Mean (25 mg, 75 min after first EtOH): 63.5 beats/min
Systolic Blood Pressure, Mean (25 mg, 75 min after first EtOH): 120.7 mmHg
Diastolic Blood Pressure, Mean [1]: 74.0 mmHg
Heart Rate, Mean [1]: 66.5 beats/min
Systolic Blood Pressure, Mean [1]: 118.2 mmHg
Diastolic Blood Pressure, Mean [2]: 75.0 mmHg
Heart Rate, Mean [2]: 64.7 beats/min
Systolic Blood Pressure, Mean [2]: 119.0 mmHg
Diastolic Blood Pressure, Mean (25 mg, Pre-EtOH): 73.5 mmHg
Heart Rate, Mean (25 mg, Pre-EtOH): 59.5 beats/min
Systolic Blood Pressure, Mean (25 mg, Pre-EtOH): 117.2 mmHg
QTcF Interval, Aggregate, Mean (25 mg, prior to initiation of repeat EtOH administration session): 403.7 ms
subjects reporting a TEAE (50 mg): 83.3%
Diastolic Blood Pressure, Mean (50 mg, 15 min after first EtOH): 73.3 mmHg
Systolic Blood Pressure, Mean (50 mg, 15 min after first EtOH): 116.7 mmHg
Diastolic Blood Pressure, Mean (50 mg, 45 min after first EtOH): 75.2 mmHg
Heart Rate, Mean (50 mg, 45 min after first EtOH): 72.7 beats/min
Systolic Blood Pressure, Mean (50 mg, 45 min after first EtOH): 119.5 mmHg
QTcF Interval, Aggregate, Mean (50 mg, 1 hour after initiation of repeat EtOH administration session): 402.5 ms
Diastolic Blood Pressure, Mean (50 mg, 75 min after first EtOH): 73.8 mmHg
Heart Rate, Mean (50 mg, 75 min after first EtOH): 80.5 beats/min
Systolic Blood Pressure, Mean (50 mg, 75 min after first EtOH): 117.5 mmHg
Diastolic Blood Pressure, Mean [3]: 71.8 mmHg
Heart Rate, Mean [3]: 81.8 beats/min
Systolic Blood Pressure, Mean [3]: 117.5 mmHg
Diastolic Blood Pressure, Mean [4]: 78.7 mmHg
Heart Rate, Mean [4]: 76.8 beats/min
Systolic Blood Pressure, Mean [4]: 123.7 mmHg
Diastolic Blood Pressure, Mean (50 mg, Pre-EtOH): 74.5 mmHg
Heart Rate, Mean (50 mg, Pre-EtOH): 56.7 beats/min
Systolic Blood Pressure, Mean (50 mg, Pre-EtOH): 115.7 mmHg
subjects with TEAE of tachyarrhythmia (50 mg, after EtOH): one
QTcF Interval, Aggregate, Mean (50 mg, prior to initiation of repeat EtOH administration session): 400.7 ms
subjects reporting a TEAE (100 mg): 100%
Diastolic Blood Pressure, Mean [5]: 72.0 mmHg
Systolic Blood Pressure, Mean [5]: 119.2 mmHg
Diastolic Blood Pressure, Mean [6]: 70.2 mmHg
Heart Rate, Mean [6]: 70.5 beats/min
Systolic Blood Pressure, Mean [6]: 120.0 mmHg
QTcF Interval, Aggregate, Mean (100 mg, 1 hour after initiation of repeat EtOH administration session): 405.3 ms
Diastolic Blood Pressure, Mean [7]: 70.7 mmHg
Heart Rate, Mean [7]: 81.8 beats/min
Systolic Blood Pressure, Mean [7]: 120.2 mmHg
Diastolic Blood Pressure, Mean [8]: 69.5 mmHg
Heart Rate, Mean [8]: 83.8 beats/min
Systolic Blood Pressure, Mean [8]: 125.3 mmHg
Diastolic Blood Pressure, Mean [9]: 68.2 mmHg
Heart Rate, Mean [9]: 81.3 beats/min
Systolic Blood Pressure, Mean [9]: 114.8 mmHg
Diastolic Blood Pressure, Mean (100 mg, Pre-EtOH): 71.5 mmHg
Heart Rate, Mean (100 mg, Pre-EtOH): 57.0 beats/min
Systolic Blood Pressure, Mean (100 mg, Pre-EtOH): 115.7 mmHg
creatine kinase value of one subject (100 mg, follow-up, abnormal, not clinically significant): 1350 U/L
severe TEAE (100 mg, one event): 0.6%
QTcF Interval, Aggregate, Mean (100 mg, prior to initiation of repeat EtOH administration session): 401.3 ms
creatine kinase value of one subject, repeat (100 mg, repeat 3 days later): 583 U/L
subjects reporting a TEAE (200 mg): 100%
Diastolic Blood Pressure, Mean [10]: 76.5 mmHg
Systolic Blood Pressure, Mean [10]: 121.7 mmHg
Diastolic Blood Pressure, Mean [11]: 72.5 mmHg
Heart Rate, Mean [11]: 84.5 beats/min
Systolic Blood Pressure, Mean [11]: 124.5 mmHg
QTcF Interval, Aggregate, Mean (200 mg, 1 hour after initiation of repeat EtOH administration session): 403.2 ms
Diastolic Blood Pressure, Mean [12]: 69.8 mmHg
Heart Rate, Mean [12]: 97.0 beats/min
Systolic Blood Pressure, Mean [12]: 125.7 mmHg
Diastolic Blood Pressure, Mean [13]: 68.0 mmHg
Heart Rate, Mean [13]: 101.3 beats/min
Systolic Blood Pressure, Mean [13]: 124.0 mmHg

Reference: patent publication US20210220376A1, “ADDICTION TREATMENT OF AN ALCOHOL-CONSUMING PATIENT POPULATION” (Amygdala Neurosciences, Inc., priority 2018, published 2021)
